From PMC11767451, “Novel Approaches to Monitor Pharmacokinetics and Metabolism of Gemcitabine-Ibandronate Conjugate in Mice and Dogs” (Molecules, 2025)

Experiments:
[1] = Proof-of-concept dog PK study, plasma levels of GEM-IB and metabolites by HPLC-MS/MS; format: in vivo, beagle dogs; conditions: for half-life: dog, plasma, 5 mg/kg; for Cmax: analyte = parent or metabolite; for AUC: over the observation period
Experimental: (§1) Assay A (GEM-IB and IB): The extraction of calibration standards, quality control samples, and PK study samples was identical. Plasma, quality control stocks, and calibrator stocks were removed from the storage freezer and kept at room temperature until fully thawed. Aliquots of 100 μL of standards/quality control or blank sample were transferred into a 1.5 mL low-binding polypropylene vial with a conical bottom and snap-on lid. An amount of 10 µL of the of the internal standard solution (15 and 10 µg/mL of IB-D3 and ATP-IS, respectively) was added and mixed. For protein precipitation, 50 μL of methanol was added and then samples were vortexed for 10 min. This was followed by centrifugation at 25,000× g for ten minutes at 4 °C (Thermo Scientific MR 23i Centrifuge, Thermo Scientific, Waltham, MA, USA). To remove remaining protein, the supernatant was transferred to 10,000 molecular weight cut off (MWCO) centrifugal filters (800 µL volume, PES 10,000 with 2.0 mL receiver tubes, Analytical Sales and Services, Flanders, NJ, USA) and centrifuged again at 25,000× g for ten minutes at 4 °C. The filtrate was transferred into HPLC vials and placed into the HPLC autosampler maintained at 4 °C.
(§2) Assay B (GEMMP, GEM dFdUMP and dFdU): The extraction of calibration standards and quality control samples was identical to that of study samples. An amount of 200 µL of plasma sample was added to a 1.5 mL snap-top Eppendorf tube with 100 µL of protein precipitation solution. The samples were then vortexed for five minutes followed by centrifugation at 25,000× g for ten minutes at 4 °C. Hereafter, supernatants were transferred to 10K Amicon centrifugal filters (Merck-Millipore, Burlington, MA, USA) and centrifuged at the same settings for 60 min. The filtrates were then transferred into HPLC vials for analysis.
(§3) Assay A (GEM-IB and IB): Quantification of the analytes was carried out using high-performance liquid chromatography–tandem mass spectrometry (HPLC-MS/MS). Chromatography was performed using an Agilent 1260 Infinity II bio-inert HPLC system (Agilent Technologies, Santa Clara, CA, USA) on a Hypercarb Porous Graphitic Carbon HPLC column (3 µm, 2.1 × 50 mm, Thermo Scientific, Waltham, MA, USA). The HPLC system consisted of an Agilent 1260 Infinity II bio-inert quaternary pump, an Agilent 1260 Infinity II bio-inert column oven, and an Agilent 1260 Infinity II bio-inert autosampler (Agilent Technologies, Santa Clara, CA, USA). An amount of 10 µL of the sample extracts was injected. The column was maintained at 22 °C. HPLC-MS-grade water supplemented with 10 mM hexafluoroisopropanol (HFIP) and 0.05% (v/v) diethyl amine (DEA) at pH 9.4 was used for the aqueous mobile phase (Buffer A) and HPLC-grade acetonitrile was used for the organic mobile phase (Buffer B). The flow rate was set to 400 µL/min throughout the assay. The initial settings were 98% Buffer A and 2% organic Buffer B for the first two minutes. During the following 0.7 min, the organic Buffer B was increased to 30%. At minute 3.5, the gradient reached 98% Buffer B, which was kept for 0.5 min, and at minute 4.2 the column was re-equilibrated to starting conditions for 2.8 min until the next injection. The HPLC system was connected to a Sciex a 5500+ triple quadrupole mass spectrometer (SCIEX, Concord, ON, Canada) via a turbo electrospray ionization source (SCIEX) operated in the negative electrospray ionization (ESI) mode. Data were acquired in negative multiple reaction monitoring (MRM) mode and all compounds were detected as [M–H ]^−. The ion transitions used during the multiple reaction monitoring mode were m/z = 318→236, 321→239, 643→342, and 521→79 for IB, IB-D3, GEM-IB, and adenosine-^13C10,^15N5 5′-triphosphate (^13C10-^15N5-ATP), respectively. The dwell time for analysis was set to 50 ms. The curtain gas was kept at 20 psi and the ion source gas at 55 psi. The ion spray voltage was −4500 volts, and the temperature of the ion source was set to 400 °C. […]

[2] = Proof-of-concept mouse PK study, plasma levels of GEM-IB and metabolites by HPLC-MS/MS; format: in vivo, mice; conditions: for Cmax: analyte = parent or metabolite; for AUC: over the observation period
Experimental: as §1, §2, §3

[3] = after GEM-IB 5 mg/kg 30 min i.v. infusion
[4] = beagle, iv, after GEM-IB 5 mg/kg 30 min i.v. infusion, read-out: T1/2 (converted)
[5] = beagle, iv, after GEM-IB 5 mg/kg 30 min i.v. infusion
[6] = beagle, iv, after the end of the 30 min i.v. infusion of GEM-IB 5 mg/kg, read-out: half-life
[7] = ip, after GEM-IB 5 mg/kg i.p., read-out: Tmax
[8] = mouse, plasma, ip, 5 mg/kg, after GEM-IB 5 mg/kg i.p., read-out: AUC
[9] = mouse, plasma, ip, 5 mg/kg, after GEM-IB 5 mg/kg i.p., read-out: T1/2 (converted)
[10] = mouse, plasma, ip, 5 mg/kg, after i.p. injection of GEM-IB 5 mg/kg, read-out: half-life

Compound | Rate Constant [1, 3] | half-life [1, 4] | Tmax [1, 5] | Cmax [1, 5] | AUC [1, 5] | Rate Constant ([2]; after GEM-IB 5 mg/kg i.p.) | Cmax ([2]; ip, after GEM-IB 5 mg/kg i.p.) | half-life [1, 6] | Tmax [2, 7] | AUC [2, 8] | half-life [2, 9] | half-life [2, 10] | other results
Nc1ccn([C@@H]2O[C@H](CO)[C@@H](O)C2(F)F)c(=O)n1 [GEM, gemcitabine] | 0.5 h⁻¹ | 90.7 min | 30 min | 684 ng/mL | 1620 ng·h/mL | 1.5 h⁻¹ | 2120 ng/mL |  |  |  |  |  | T1/2 ([2]; after GEM-IB 5 mg/kg i.p.): 26.9 min; Tmax ([2]; after GEM-IB 5 mg/kg i.p.): 4.98 min
CCCCCN(C)CCC(O)(P(=O)(O)O)P(=O)(O)OP(=O)(O)OC[C@H]1O[C@@H](n2ccc(N)nc2=O)C(F)(F)[C@@H]1O (stereo partly drawn) [GEM-IB] | 50.6 h⁻¹ | 0.84 min | 30 min | 795 ng/mL | 295 ng·h/mL | 5.0 h⁻¹ | 4180 ng/mL | < 1 min | 4.98 min | 1280 ng·h/mL | 8.28 min | 8 min | clearance [1, 5]: 284 mL/min/kg; Vd ([1]; beagle, iv, after GEM-IB 5 mg/kg 30 min i.v. infusion, read-out: Vdss): 1.93 L/kg; CL ([2]; after GEM-IB 5 mg/kg i.p.): 65.65 mL/min/kg; Vdss ([2]; after GEM-IB 5 mg/kg i.p.): 0.469 L/kg
Nc1ccn([C@@H]2O[C@H](COP(=O)(O)O)[C@@H](O)C2(F)F)c(=O)n1 [GEMMP, gemcitabine-5′-phosphate] |  |  | 30 min | 224 ng/mL | 83 ng·h/mL | 4.0 h⁻¹ | 1310 ng/mL |  | 4.98 min | 405 ng·h/mL | 10.3 min |  | plasma values after the infusion period [1, 3]: below the LLOQ
CCCCCN(C)CCC(O)(P(=O)(O)O)P(=O)(O)O [IB, ibandronate] | 0.7 h⁻¹ | 55.9 min | 30 min | 4740 ng/mL | 5720 ng·h/mL | 2.6 h⁻¹ | 22800 ng/mL | 55 min | 4.98 min | 10700 ng·h/mL | 16.1 min | 16 min | 
O=c1ccn([C@@H]2O[C@H](CO)[C@@H](O)C2(F)F)c(=O)[nH]1 [dFdU, 2′,2′-difluoro-2′-deoxyuridine] | 0.1 h⁻¹ | 591 min | 270 min | 330 ng/mL | 6570 ng·h/mL | 0.4 h⁻¹ | 832 ng/mL |  | 60 min |  | 108 min |  | 
O=c1ccn([C@@H]2O[C@H](COP(=O)(O)O)[C@@H](O)C2(F)F)c(=O)[nH]1 [dFdUMP, 2′,2′-difluoro-2′-deoxyuridine-5′-phosphate] | 7.0 h⁻¹ | 5.94 min | 30 min | 23 ng/mL | 11 ng·h/mL | 11.1 h⁻¹ | 130 ng/mL |  | 4.98 min |  | 3.78 min |  | AUC ([2]; after GEM-IB 5 mg/kg i.p.): 38 ng·h/mL; AUC ([2]; after GEM-IB 5 mg/kg i.p., listed as dFdU-MP): 3389 ng·h/mL
